Patent US12139492B2 (Endotarget Inc., priority 2021, dated 2024)

Legend:
Assay type in all cases: cell-based
Mino cells = assay: Antiproliferative effect, MTS cell viability assay, Mino cells; settings: Homo sapiens, MINO, Mino mantle cell lymphoma cells; read-out: IC50 (anti-proliferation) Mino cells
In short: (§1)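 Tested at six concentrations (0 to 10 μM in tenfold steps), 72 h; viability by MTS, A490.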

JeKo-1 cells = assay: Antiproliferative effect, MTS cell viability assay, JeKo-1 cells; settings: Homo sapiens; JeKo-1 mantle cell lymphoma cells; read-out: IC50 (anti-proliferation) JeKO-1 cells
In short: as §1

BTK = BTK (Homo sapiens, UniProt Q06187); assay: BTK degradation, DC50 and Dmax of Table 1 (cell line not given); design: endogenous in cells; settings: for DC50: concentration giving 50% reduction of BTK expression level
Sequence of BTK (Q06187 whole entry): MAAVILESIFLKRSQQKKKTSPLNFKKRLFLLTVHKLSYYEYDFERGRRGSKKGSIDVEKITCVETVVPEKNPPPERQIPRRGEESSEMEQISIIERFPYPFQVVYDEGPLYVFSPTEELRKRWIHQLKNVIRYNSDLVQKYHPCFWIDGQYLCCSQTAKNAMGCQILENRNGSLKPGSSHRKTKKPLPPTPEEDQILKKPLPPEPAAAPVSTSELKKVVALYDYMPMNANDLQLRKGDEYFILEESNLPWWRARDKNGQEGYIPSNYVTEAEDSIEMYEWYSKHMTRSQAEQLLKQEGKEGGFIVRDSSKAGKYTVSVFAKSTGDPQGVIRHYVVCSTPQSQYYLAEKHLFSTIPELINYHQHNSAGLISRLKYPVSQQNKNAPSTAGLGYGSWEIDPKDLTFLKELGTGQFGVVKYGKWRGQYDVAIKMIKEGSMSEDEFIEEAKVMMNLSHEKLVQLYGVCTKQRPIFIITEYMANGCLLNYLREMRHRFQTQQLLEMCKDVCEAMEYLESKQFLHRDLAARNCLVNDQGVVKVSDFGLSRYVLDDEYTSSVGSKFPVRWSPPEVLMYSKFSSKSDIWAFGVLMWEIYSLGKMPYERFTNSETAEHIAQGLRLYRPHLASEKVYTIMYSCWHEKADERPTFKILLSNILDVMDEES

SMILES | IC50 (Mino cells) [nM] | IC50 (JeKo-1 cells) [nM] | Dmax (BTK) [%] | DC50 (BTK) [nM]
Nc1ncnc2c1c(-c1ccc(Oc3ccccc3)cc1)nn2C1CCN(C(=O)N2CCC(CCCN3CCN(c4ccc5c(c4)C(=O)N(C4CCC(=O)NC4=O)C5=O)CC3)CC2)CC1 (centres unmarked) [Compound 117, 5-(4-(3-(1-(4-(4-amino-3-(4-phenoxyphenyl)-1H-pyrazolo[3,4-d]pyrimidin-1-yl)piperidine-1-carbonyl)-piperidin-4-yl)propyl)piperazin-1-yl)-2-(2,6-dioxopiperidin-3-yl)isoindoline-1,3-dione] | 1000 to 10000 | 1000 to 10000 | > 75 | > 50
Nc1ncnc2c1c(-c1ccc(Oc3ccccc3)cc1)nn2C1CCN(C(=O)N2CCC(CCCN3CCN(c4ccc5c(c4)CN(C4CCC(=O)NC4=O)C5=O)CC3)CC2)CC1 (centres unmarked) [Compound 118, 3-(5-(4-(3-(1-(4-(4-amino-3-(4-phenoxyphenyl)-1H-pyrazolo[3,4-d]pyrimidin-1-yl)piperidine-1-carbonyl)piperidin-4-yl)propyl)piperazin-1-yl)-1-oxoisoindolin-2-yl)piperidine-2,6-dione] | > 10000 | 1000 to 10000 | > 75 | > 50
Nc1ncnc2c1c(-c1ccc(Oc3ccccc3)cc1)nn2C1CCN(C(=O)N2CCN(CCCN3CCN(c4ccc5c(c4)C(=O)N(C4CCC(=O)NC4=O)C5=O)CC3)CC2)CC1 (centres unmarked) [Compound 119, 5-(4-(3-(4-(4-(4-amino-3-(4-phenoxyphenyl)-1H-pyrazolo[3,4-d]pyrimidin-1-yl)piperidine-1-carbonyl)piperazin-1-yl)propyl)piperazin-1-yl)-2-(2,6-dioxopiperidin-3-yl)isoindoline-1,3-dione] | 1000 to 10000 | > 10000 | > 75 | > 50
Nc1ncnc2c1c(-c1ccc(Oc3ccccc3)cc1)nn2C1CCN(C(=O)N2CCN(CCCN3CCN(c4ccc5c(c4)CN(C4CCC(=O)NC4=O)C5=O)CC3)CC2)CC1 (centres unmarked) [Compound 120, 3-(5-(4-(3-(4-(4-(4-amino-3-(4-phenoxyphenyl)-1H-pyrazolo[3,4-d]pyrimidin-1-yl)piperidine-1-carbonyl)piperazin-1-yl)propyl)piperazin-1-yl)-1-oxoisoindolin-2-yl)piperidine-2,6-dione] | > 10000 | > 10000 | > 75 | > 50
Nc1ncnc2c1c(-c1ccc(Oc3ccccc3)cc1)nn2C1CCN(C(=O)N2CCN(CCCC3CCN(c4ccc5c(c4)C(=O)N(C4CCC(=O)NC4=O)C5=O)CC3)CC2)CC1 (centres unmarked) [Compound 121, 5-(4-(3-(4-(4-(4-amino-3-(4-phenoxyphenyl)-1H-pyrzolo[3,4-d]pyrimidin-1-yl)piperidine-1-carbonyl)piperazin-1-yl)propyl)piperidin-1-yl)-2-(2,6-dioxopiperidin-3-yl)isoindoline-1,3-dione] | 1000 to 10000 | 1000 to 10000 | > 75 | > 50
Nc1ncnc2c1c(-c1ccc(Oc3ccccc3)cc1)nn2C1CCN(C(=O)N2CCN(CCCC3CCN(c4ccc5c(c4)CN(C4CCC(=O)NC4=O)C5=O)CC3)CC2)CC1 (centres unmarked) [Compound 122, 3-(5-(4-(3-(4-(4-(4-amino-3-(4-phenoxyphenyl)-1H-pyrazolo[3,4-d]pyrimidin-1-yl)piperidine-1-carbonyl)piperazin-1-yl)propyl)piperidin-1-yl)-1-oxoisoindolin-2-yl)piperidine-2,6-dione] | 1000 to 10000 | 1000 to 10000 | > 75 | > 50
Nc1ncnc2c1c(-c1ccc(Oc3ccccc3)cc1)nn2C1CCN(C(=O)N2CCN(CCCN3CCC(c4ccc5c(c4)C(=O)N(C4CCC(=O)NC4=O)C5=O)CC3)CC2)CC1 (centres unmarked) [Compound 123, 5-(1-(3-(4-(4-(4-amino-3-(4-phenoxyphenyl)-1H-pyrazolo[3,4-d]pyrimidin-1-yl)piperidine-1-carbonyl)piperazin-1-yl)propyl)piperidin-4-yl)-2-(2,6-dioxopiperidin-3-yl)isoindoline-1,3-dione] | 1000 to 10000 | 1000 to 10000 | > 75 | > 50
Nc1ncnc2c1c(-c1ccc(Oc3ccccc3)cc1)nn2C1CCN(C(=O)N2CCN(CCCN3CCC(c4ccc5c(c4)CN(C4CCC(=O)NC4=O)C5=O)CC3)CC2)CC1 (centres unmarked) [Compound 124, 3-(5-(1-(3-(4-(4-(4-amino-3-(4-phenoxyphenyl)-1H-pyrazolo[3,4-d]pyrimidin-1-yl)piperidine-1-carbonyl)piperazin-1-yl)propyl)piperidin-4-yl)-1-oxoisoindolin-2-yl)piperidine-2,6-dione] | > 10000 | > 10000 | > 90 | > 50
Nc1ncnc2c1c(-c1ccc(Oc3ccccc3)cc1)nn2C1CCN(C(=O)N2CCC(CCCC3CCN(c4ccc5c(c4)C(=O)N(C4CCC(=O)NC4=O)C5=O)CC3)CC2)CC1 (centres unmarked) [Compound 125, 5-(4-(3-(1-(4-(4-amino-3-(4-phenoxyphenyl)-1H-pyrazolo[3,4-d]pyrimidin-1-yl)piperidine-1-carbonyl)piperidin-4-yl)propyl)piperidin-1-yl)-2-(2,6-dioxopiperidin-3-yl)isoindoline-1,3-dione] | > 10000 | 1000 to 10000 | > 90 | > 50
Nc1ncnc2c1c(-c1ccc(Oc3ccccc3)cc1)nn2C1CCN(C(=O)N2CCC(CCCC3CCN(c4ccc5c(c4)CN(C4CCC(=O)NC4=O)C5=O)CC3)CC2)CC1 (centres unmarked) [Compound 126, 3-(5-(4-(3-(1-(4-(4-amino-3-(4-phenoxyphenyl)-1H-pyrazolo[3,4-d]pyrimidin-1-yl)piperidine-1-carbonyl)piperidin-4-yl)propyl)piperidin-1-yl)-1-oxoisoindolin-2-yl)piperidine-2,6-dione] | 1000 to 10000 | > 10000 | > 90 | > 50
Nc1ncnc2c1c(-c1ccc(Oc3ccccc3)cc1)nn2C1CCN(C(=O)N2CCC(CCCN3CCC(c4ccc5c(c4)C(=O)N(C4CCC(=O)NC4=O)C5=O)CC3)CC2)CC1 (centres unmarked) [Compound 127, 5-(1-(3-(1-(4-(4-amino-3-(4-phenoxyphenyl)-1H-pyrazolo[3,4-d]pyrimidin-1-yl)piperidine-1-carbonyl)piperidin-4-yl)propyl)piperidin-4-yl)-2-(2,6-dioxopiperidin-3-yl)isoindoline-1,3-dione] | 1000 to 10000 | > 10000 | > 90 | > 50
Nc1ncnc2c1c(-c1ccc(Oc3ccccc3)cc1)nn2C1CCN(C(=O)N2CCC(CCCN3CCC(c4ccc5c(c4)CN(C4CCC(=O)NC4=O)C5=O)CC3)CC2)CC1 (centres unmarked) [Compound 128, 3-(5-(1-(3-(1-(4-(4-amino-3-(4-phenoxyphenyl)-1H-pyrazolo[3,4-d]pyrimidin-1-yl)piperidine-1-carbonyl)piperidin-4-yl)propyl)piperidin-4-yl)-1-oxoisoindolin-2-yl)piperidine-2,6-dione] | 1000 to 10000 | > 10000 | > 90 | > 50
Nc1ncnc2c1c(-c1ccc(Oc3ccccc3)cc1)nn2[C@@H]1CCCN(CC2CCN(CC3CCN(c4ccc5c(c4)C(=O)N(C4CCC(=O)NC4=O)C5=O)CC3)CC2)C1 (stereo partly drawn) [Compound 129, 5-(4-((4-(((R)-3-(4-amino-3-(4-phenoxyphenyl)-1H-pyrazolo[3,4-d]pyrimidin-1-yl)piperidin-1-yl)methyl)piperidin-1-yl)methyl)piperidin-1-yl)-2-(2,6-dioxopiperidin-3-yl)isoindoline-1,3-dione] | > 10000 | > 10000 | > 75 | 10 to 50
Nc1ncnc2c1c(-c1ccc(Oc3ccccc3)cc1)nn2[C@@H]1CCCN(CC2CCN(CC3CCN(c4ccc5c(c4)CN(C4CCC(=O)NC4=O)C5=O)CC3)CC2)C1 (stereo partly drawn) [Compound 130, 3-(5-(4-((4-(((R)-3-(4-amino-3-(4-phenoxyphenyl)-1H-pyrazolo[3,4-d]pyrimidin-1-yl)piperidin-1-yl)methyl)piperidin-1-yl)methyl)piperidin-1-yl)-1-oxoisoindolin-2-yl)piperidine-2,6-dione] | 1000 to 10000 | 1000 to 10000 | > 90 | 10 to 50
Nc1ncnc2c1c(-c1ccc(Oc3ccccc3)cc1)nn2[C@@H]1CCCN(CC2CCN(CCC3CCN(c4ccc5c(c4)C(=O)N(C4CCC(=O)NC4=O)C5=O)CC3)CC2)C1 (some centres unmarked) [Compound 131] | 1000 to 10000 | 1000 to 10000 | > 75 | 10 to 50
Nc1ncnc2c1c(-c1ccc(Oc3ccccc3)cc1)nn2[C@@H]1CCCN(CC2CCN(CCC3CCN(c4ccc5c(c4)CN(C4CCC(=O)NC4=O)C5=O)CC3)CC2)C1 (stereo partly drawn) [Compound 132, 3-(5-(4-(2-(4-(((R)-3-(4-amino-3-(4-phenoxyphenyl)-1H-pyrazolo[3,4-d]pyrimidin-1-yl)piperidin-1-yl)methyl)piperidin-1-yl)ethyl)piperidin-1-yl)-1-oxoisoindolin-2-yl)piperidine-2,6-dione] | 1000 to 10000 | 1000 to 10000 | > 90 | 10 to 50
Nc1ncnc2c1c(-c1ccc(Oc3ccccc3)cc1)nn2[C@@H]1CCCN(CC2CCN(CCN3CCN(c4ccc5c(c4)C(=O)N(C4CCC(=O)NC4=O)C5=O)CC3)CC2)C1 (stereo partly drawn) [Compound 133, 5-(4-(2-(4-(((R)-3-(4-amino-3-(4-phenoxyphenyl)-1H-pyrazolo[3,4-d]pyrimidin-1-yl)piperidin-1-yl)methyl)piperidin-1-yl)ethyl)piperazin-1-yl)-2-(2,6-dioxopiperidin-3-yl)isoindoline-1,3-dione] | < 1000 | 1000 to 10000 | > 90 | 10 to 50
